# Laboratory results published in ChEMBL document CHEMBL4406913, “INCB050465 (Parsaclisib), a Novel Next-Generation Inhibitor of Phosphoinositide 3-Kinase Delta (PI3Kδ)” (ACS Med Chem Lett, 2019).
# Experiments:
# [1] = Terminal half life in cynomolgus monkey at 2 mg/kg, iv measured for 24 hrs by LC-MS/MS analysis; format: ADME, organism-based, Macaca fascicularis; details: in vivo, read-out: beta t1/2 (converted)
# [2] = Fractional unbound in human plasma; format: ADME, cell-free
# [3] = tested on: SU-DHL-6; assay: Cytotoxicity against human SUDHL6 cells assessed as reduction in cell viability incubated for 4 days by celltiter glo luminescent assay; format: functional, cell-based; details: SU-DHL-6, 96 h
# [4] = target: T1, Cytochrome P450 1A2 (Homo sapiens, UniProt P05177); assay: Inhibition of CYP1A2 in human liver microsomes at 0.1 to 25 uM using 7-ethoxyresorufin as substrate by LC/MS analysis; format: ADME
# T1 sequence (P05177 whole entry): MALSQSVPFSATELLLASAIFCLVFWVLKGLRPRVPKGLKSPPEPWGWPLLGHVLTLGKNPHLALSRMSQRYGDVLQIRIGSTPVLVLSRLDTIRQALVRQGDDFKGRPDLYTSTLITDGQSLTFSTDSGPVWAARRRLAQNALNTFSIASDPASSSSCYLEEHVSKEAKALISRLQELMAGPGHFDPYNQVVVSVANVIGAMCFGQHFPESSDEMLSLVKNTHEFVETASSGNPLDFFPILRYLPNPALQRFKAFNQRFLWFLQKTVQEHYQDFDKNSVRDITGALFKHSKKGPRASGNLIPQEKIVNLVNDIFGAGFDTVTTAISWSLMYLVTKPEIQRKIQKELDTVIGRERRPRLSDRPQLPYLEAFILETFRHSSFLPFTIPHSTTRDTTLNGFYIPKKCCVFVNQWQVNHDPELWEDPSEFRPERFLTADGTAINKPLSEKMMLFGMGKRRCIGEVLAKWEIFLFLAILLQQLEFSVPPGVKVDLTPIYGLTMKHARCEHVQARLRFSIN
smiles,measurement,setting,value
CCOc1c([C@H](C)n2nc(C)c3c(N)ncnc32)cc(Cl)c(F)c1[C@@H]1CNC(=O)C1 [PARSACLISIB],half-life,[1],7.3 h
same,fraction unbound,[2],0.058
same,IC50,[3],1.6 nM
same,inhibition (INH),[4],Not Active
